The experiment addresses T1, human mGlu4 receptor (Homo sapiens, UniProt Q14833).
T1 construct: expressed in transfected cells; host or cells: monoclonal HEK-293 cell line, stably transfected
Put plainly: Ca2+ mobilization in vitro assay on recombinant human mGlu4 expressed in HEK293 cells (PAM, L-AP4 at EC20). It counts as cell-based. Conditions: for Emax: HEK293, maximal response in % of the maximal stimulatory effect obtained with saturating concentrations of L-AP4, read-out: Eff. (%); for EC50: HEK293 cells expressing human mGlu4, L-AP4 added at EC20. An excerpt:
FIG. 1: Illustration of the experimental outline for mGlu4 PAM Ca2+ mobilization screening assay and the determination of EC50 and % Emax values.
Determination of EC50 Values Using a Ca2+ Mobilization In Vitro Assay on Recombinant Human mGlu4 Expressed in HEK293 Cells:
A monoclonal HEK-293 cell line stably transfected with a cDNA encoding for the human mGlu4 receptor was generated; for the work with mGlu4 Positive Allosteric Modulators (PAMs), a cell line with low receptor expression levels and low constitutive receptor activity was selected to allow the differentiation of agonistic versus PAM activity. Cells were cultured according to standard protocols (Freshney, 2000) in Dulbecco's Modified Eagle Medium with high glucose supplemented with 1 mM glutamine, 10% (vol/vol) heat-inactivated bovine calf serum, Penicillin/Streptomycin, 50 μg/ml hygromycin and 15 μg/ml blasticidin (all cell culture reagents and antibiotics from Invitrogen, Basel, Switzerland).
About 24 hrs before an experiment, 5×10^4 cells/well were seeded in poly-D-lysine coated, black/clear-bottomed 96-well plates. The cells were loaded with 2.5 μM Fluo-4AM in loading buffer (1×HBSS, 20 mM HEPES) for 1 hr at 37° C. and washed five times with loading buffer. The cells were transferred into a Functional Drug Screening System 7000 (Hamamatsu, Paris, France), and 11 half logarithmic serial dilutions of test compound at 37° C. were added and the cells were incubated for 10-30 min. with on-line recording of fluorescence. Following this pre-incubation step, the agonist (2S)-2-amino-4-phosphonobutanoic acid (L-AP4) was added to the cells at a concentration corresponding to EC20 with on-line recording of fluorescence; in order to account for day-to-day variations in the responsiveness of cells, the EC20 of L-AP4 was determined immediately ahead of each experiment by recording of a full dose-response curve of L-AP4. Responses were measured as peak increase in fluorescence minus basal (i.e. fluorescence without addition of L-AP4), normalized to the maximal stimulatory effect obtained with saturating concentrations of L-AP4. Graphs were plotted with the % maximal stimulatory using XLfit, a curve fitting program that iteratively plots the data using Levenburg Marquardt algorithm. The single site competition analysis equation used was y=A+((B−A)/(1+((x/C)D))), where y is the % maximal stimulatory effect, A is the minimum y, B is the maximum y, C is the EC50, x is the log 10 of the concentration of the competing compound and D is the slope of the curve (the Hill Coefficient). From these curves the EC50 (drug concentration at which 50% of the maximal receptor activation was achieved), the Hill coefficient as well as the maximal response in % of the maximal stimulatory effect obtained with saturating concentrations of L-AP4 were calculated (see FIG. 1). […] A depression of the signal observed after addition of the EC20 concentration of L-AP4 was indicative of an inhibitory activity of the test compound.

The structures appear in SMILES notation.

T1 sequence (Q14833 33-912): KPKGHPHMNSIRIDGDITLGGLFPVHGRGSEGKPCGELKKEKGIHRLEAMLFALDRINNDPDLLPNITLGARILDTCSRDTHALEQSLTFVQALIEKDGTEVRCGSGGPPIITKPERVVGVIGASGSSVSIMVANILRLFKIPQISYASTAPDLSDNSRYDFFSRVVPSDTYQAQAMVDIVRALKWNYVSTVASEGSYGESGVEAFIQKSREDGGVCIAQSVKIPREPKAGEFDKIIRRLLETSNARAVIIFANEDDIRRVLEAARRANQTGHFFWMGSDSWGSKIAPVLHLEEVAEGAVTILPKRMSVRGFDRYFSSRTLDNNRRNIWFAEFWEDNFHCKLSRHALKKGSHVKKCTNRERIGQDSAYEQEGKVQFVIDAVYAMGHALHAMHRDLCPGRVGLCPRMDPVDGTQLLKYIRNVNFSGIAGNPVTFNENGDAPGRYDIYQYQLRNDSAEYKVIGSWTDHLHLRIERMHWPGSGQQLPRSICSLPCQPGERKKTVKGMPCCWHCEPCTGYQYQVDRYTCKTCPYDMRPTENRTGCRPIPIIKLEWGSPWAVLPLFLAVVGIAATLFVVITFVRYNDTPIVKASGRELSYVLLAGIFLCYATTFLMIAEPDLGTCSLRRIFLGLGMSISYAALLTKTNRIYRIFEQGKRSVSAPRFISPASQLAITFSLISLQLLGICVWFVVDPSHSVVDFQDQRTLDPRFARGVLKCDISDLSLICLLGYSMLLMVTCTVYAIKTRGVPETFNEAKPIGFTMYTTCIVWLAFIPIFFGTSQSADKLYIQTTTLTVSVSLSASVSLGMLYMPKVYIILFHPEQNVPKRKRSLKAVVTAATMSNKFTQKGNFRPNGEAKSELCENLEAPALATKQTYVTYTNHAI

By EC50 is commonly meant the concentration giving half of the maximal effect. With `CN1C(=O)N(c2c(F)cc(C#Cc3ccccc3)cc2F)C(=O)C[C@@]1(C)c1cnn(CC(C)(C)O)c1` [Example 60, (6S)-3-[2,6-Difluoro-4-(2-phenylethynyl)phenyl]-6-[1-(2-hydroxy-2-methyl-propyl)pyrazol-4-yl]-1,6-dimethyl-hexahydropyrimidine-2,4-dione], the Emax came to 142% and the concentration for a half-maximal effect (EC50) was found to be 47 nM.

For `Cc1ncc([C@]2(C)CC(=O)N(c3c(F)cc(C#Cc4ccccc4)cc3F)C(=O)N2C)s1` [Example 39, (6S)-3-[2,6-Difluoro-4-(2-phenylethynyl)phenyl]-1,6-dimethyl-6-(2-methylthiazol-5-yl)hexahydropyrimidine-2,4-dione], the Emax was found to be 148% and the EC50 was 71 nM.

As for `CN1C(=O)N(c2c(F)cc(C#Cc3ccccc3)cc2F)C(=O)C[C@@]1(C)c1cnn(CCO)c1` [Example 23, (6S)-3-[2,6-Difluoro-4-(2-phenylethynyl)phenyl]-6-[1-(2-hydroxyethyl)pyrazol-4-yl]-1,6-dimethyl-hexahydropyrimidine-2,4-dione], the Emax is 147% and the EC50 stood at 108 nM.

Regarding `CN1C(=O)N(c2c(F)cc(C#Cc3ccccc3)cc2F)C(=O)C[C@@]1(C)c1cnn(CC2COC2)c1` [Example 61, (6S)-3-[2,6-Difluoro-4-(2-phenylethynyl)phenyl]-1,6-dimethyl-6-[1-(oxetan-3-ylmethyl)pyrazol-4-yl]hexahydropyrimidine-2,4-dione], the Emax amounted to 110% and the 50% effective concentration (EC50) stood at 63 nM.

On to `CC[C@@]1(c2cn[nH]c2)CC(=O)N(c2c(F)cc(C#Cc3cccnc3)cc2F)C(=O)N1C` [Example 51, (6S)-3-[2,6-Difluoro-4-[2-(3-pyridyl)ethynyl]phenyl]-6-ethyl-1-methyl-6-(1H-pyrazol-4-yl)hexahydropyrimidine-2,4-dione], for which the Emax amounted to 136% and the EC50 worked out at 45 nM.

As to `COCCCn1cc([C@]2(C)CC(=O)N(c3c(F)cc(C#Cc4ccccc4)cc3F)C(=O)N2C)cn1` [Example 21, (6S)-3-[2,6-Difluoro-4-(2-phenylethynyl)phenyl]-6-[1-(3-methoxypropyl)pyrazol-4-yl]-1,6-dimethyl-hexahydropyrimidine-2,4-dione], the Emax amounted to 136% and the EC50 is 70 nM.

`CN1C(=O)N(c2c(F)cc(C#Cc3ccccc3)cc2Cl)C(=O)C[C@@]1(C)c1cnn(C)c1` [Example 44, (6S)-3-[2-Chloro-6-fluoro-4-(2-phenylethynyl)phenyl]-1,6-dimethyl-6-(1-methylpyrazol-4-yl)hexahydropyrimidine-2,4-dione]: the Emax was 153% and the EC50 is 99 nM.

In the case of `CN1C(=O)N(c2c(F)cc(C#Cc3ccccc3)cc2F)C(=O)C[C@@]1(C)c1ccn(CCO)n1` [Example 46, (S)-3-(2,6-Difluoro-4-(phenylethynyl)phenyl)-6-(1-(2-hydroxyethyl)-1H-pyrazol-3-yl)-1,6-dimethyldihydropyrimidine-2,4(1H,3H)-dione], the Emax was found to be 156% and the 50% effective concentration (EC50) came out at 97 nM.

With `CN1C(=O)N(c2c(F)cc(C#Cc3ccccc3)cc2F)C(=O)C[C@@]1(C)c1ccon1` [Example 40, (6S)-3-[2,6-Difluoro-4-(2-phenylethynyl)phenyl]-6-isoxazol-3-yl-1,6-dimethyl-hexahydropyrimidine-2,4-dione], the Emax is 142% and the EC50 is 37 nM.

`CN1C(=O)N(c2c(F)cc(C#Cc3ccc(F)cc3)cc2F)C(=O)C[C@@]1(C)c1cn[nH]c1` [Example 54, (6S)-3-[2,6-Difluoro-4-[2-(4-fluorophenyl)ethynyl]phenyl]-1,6-dimethyl-6-(1H-pyrazol-4-yl)hexahydropyrimidine-2,4-dione]: the Emax worked out at 135% and the EC50 came out at 27 nM.

With `COCCCn1ccc([C@]2(C)CC(=O)N(c3c(F)cc(C#Cc4ccccc4)cc3F)C(=O)N2C)n1` [Example 31, (6S)-3-[2,6-Difluoro-4-(2-phenylethynyl)phenyl]-6-[1-(3-methoxypropyl)pyrazol-3-yl]-1,6-dimethyl-hexahydropyrimidine-2,4-dione], the Emax came out at 117% and the EC50 is 23 nM.

As to `CN1C(=O)N(c2c(F)cc(C#Cc3ccc(F)cc3F)cc2F)C(=O)C[C@@]1(C)c1cnn(C)c1` [Example 58, (6S)-3-[4-[2-(2,4-Difluorophenyl)ethynyl]-2,6-difluoro-phenyl]-1,6-dimethyl-6-(1-methylpyrazol-4-yl)hexahydropyrimidine-2,4-dione], the Emax was 139% and the EC50 is 80 nM.

On to `CN1C(=O)N(c2c(F)cc(C#Cc3ccccc3F)cc2F)C(=O)C[C@@]1(C)c1cnn(C)c1` [Example 50, (6S)-3-[2,6-Difluoro-4-[2-(2-fluorophenyl)ethynyl]phenyl]-1,6-dimethyl-6-(1-methylpyrazol-4-yl)hexahydropyrimidine-2,4-dione], for which the Emax worked out at 147% and the EC50 amounted to 50 nM.

For the molecule `CN1C(=O)N(c2c(F)cc(C#Cc3cccnc3)cc2F)C(=O)C[C@@]1(C)c1cnn(C)c1` [Example 24, (6S)-3-[2,6-Difluoro-4-[2-(3-pyridyl)ethynyl]phenyl]-1,6-dimethyl-6-(1-methylpyrazol-4-yl)hexahydropyrimidine-2,4-dione], the Emax worked out at 141% and the EC50 worked out at 39 nM.

For `CN1C(=O)N(c2c(F)cc(C#Cc3ccccc3)cc2F)C(=O)C[C@@]1(C)c1nccs1` [Example 1, (6S)-3-[2,6-Difluoro-4-(2-phenylethynyl)phenyl]-1,6-dimethyl-6-thiazol-2-yl-hexahydropyrimidine-2,4-dione], the Emax worked out at 119% and the EC50 was 113 nM.

`CC(C)n1ccc([C@]2(C)CC(=O)N(c3c(F)cc(C#Cc4ccccc4)cc3F)C(=O)N2C)n1` [Example 29, (6S)-3-[2,6-Difluoro-4-(2-phenylethynyl)phenyl]-6-(1-isopropylpyrazol-3-yl)-1,6-dimethyl-hexahydropyrimidine-2,4-dione]: the Emax was 146% and the EC50 came to 126 nM.

As to `CC[C@@]1(c2ccn(C)n2)CC(=O)N(c2c(F)cc(C#Cc3ccccc3)cc2F)C(=O)N1C` [Example 27, (6S)-3-[2,6-Difluoro-4-(2-phenylethynyl)phenyl]-6-ethyl-1-methyl-6-(1-methylpyrazol-3-yl)hexahydropyrimidine-2,4-dione], the Emax amounted to 143% and the EC50 was 83 nM.

With `CCn1cc([C@]2(C)CC(=O)N(c3c(F)cc(C#Cc4ccccc4)cc3F)C(=O)N2C)cn1` [Example 13, (6S)-3-[2,6-Difluoro-4-(2-phenylethynyl)phenyl]-6-(1-ethylpyrazol-4-yl)-1,6-dimethyl-hexahydropyrimidine-2,4-dione], the Emax worked out at 115% and the concentration for a half-maximal effect (EC50) was determined as 64 nM.

Consider `CN1C(=O)N(c2c(F)cc(C#Cc3ccccc3)cc2F)C(=O)C[C@@]1(C)c1cnn(CCCO)c1` [Example 22, (6S)-3-[2,6-Difluoro-4-(2-phenylethynyl)phenyl]-6-[1-(3-hydroxypropyl)pyrazol-4-yl]-1,6-dimethyl-hexahydropyrimidine-2,4-dione], for which the Emax came out at 143% and the half-maximal effective concentration (EC50) was determined as 56 nM.

Turning to `CN1C(=O)N(c2c(F)cc(C#Cc3ccccc3)cc2F)C(=O)C[C@@]1(C)c1cn(C)c2ncccc12` [Example 9, (6S)-3-[2,6-Difluoro-4-(2-phenylethynyl)phenyl]-1,6-dimethyl-6-(1-methylpyrrolo[2,3-b]pyridin-3-yl)hexahydropyrimidine-2,4-dione], the Emax amounted to 155% and the concentration giving a half-maximal response (EC50) was 81 nM.

Turning to `CN1C(=O)N(c2c(F)cc(C#Cc3cccnc3)cc2F)C(=O)C[C@@]1(C)c1cn[nH]c1` [Example 36, (6S)-3-[2,6-Difluoro-4-[2-(3-pyridyl)ethynyl]phenyl]-1,6-dimethyl-6-(1H-pyrazol-4-yl)hexahydropyrimidine-2,4-dione], the Emax turned out to be 164% and the half-maximal effective concentration (EC50) amounted to 41 nM.

Values taken from patent US10065956B2, “Ethynyl derivatives” (Hoffmann-La Roche Inc., priority 2015, dated 2018).
